Converted amounts (≈) assume the structure as drawn. Counter-ions that a name gives are not always drawn. Like-named read-outs stand apart in the source and are kept apart here.
Legend:
[1] = Diuretic test in rats according to the Lipschitz method (urine volume and electrolyte excretion vs urea control); format: in vivo; settings: rat
Procedure: The compounds of the present invention are evaluated as diuretics according to the method of W. L. Lipschitz, et al., J. Pharmacol. Expt. Therap., 79, 97 (1943). In this method, groups of 8 rats are fasted 18 hours prior to the experiment. A control group is hydrated orally with 25 ml. per kilogram of body weight of isotonic saline solution which is also the vehicle used for dosing the test compound. One control group received a dose of 960 mg./kg. of body weight of urea. Animals of other groups are tested with various doses of the test compound. Immediately after treatment, the animals are placed in metabolism cages (two rats of the same group per cage) and maintained without food or water for 5 hours. The volume of urine excreted by each pair is determined after this period and the pooled urine is analyzed for sodium, potassium, and chloride ions. […] In this test, the N-phenyl amidines of Formula I were orally administered in doses ranging from 2.7 to 25 mg./kg. of body weight.
One of the disadvantages associated with diuretics such as the thiazides is believed to stem largely from increased excretion of potassium ion concomitant with water elimination. […] As stated hereinabove,excessive excretion of potassium ion may cause an electrolyte imbalance resulting in adverse side effects.

[2] = tested on: chloroform induced arrhythmia; test: Chloroform induced arrhythmia in the mouse; format: in vivo; settings: ip, intraperitoneal, read-out: ED50 preventing chloroform induced arrhythmia
From the text: Another in vivo test indicative of antiarrhythmic activity is chloroform induced arrhythmia in the mouse.

[3] = tested on: aconitine induced atrial arrhythmia; test: In vivo dog arrhythmia test (aconitine induced atrial arrhythmia); settings: Canis lupus familiaris, iv, read-out: effective dose restoring normal cardiac rhythm
From the text: In the in vivo dog arrhythmia test, the chest of an anesthetized dog is opened in the mid-line and the right and left atrial appendages exposed to small slits in the pericardium. Bypolar recording electrodes are affixed to atrial surfaces and a 4 × 4 mm. piece of clean cloth is fixed to surface of the right auricular appendage. Control recordings are made of various heart functions including femoral arterial blood pressure and right and left atrail electrograms. Atrial arrhythmia is then induced by placing 3-5 drops of a solution of aconitine on the cloth which is fixed to the right atrium. An irregular, rapid atrial rate is produced within 1 minute. Throughout the test, fresh aconitine (2-3 drops) is placed on the cloth at 10 minute intervals. The test compound is administered intravenously 5 minutes after the initial establishment of the arrhythmia and infusion continued at a slow rate until an effective dose which re-establishes normal rhythm of the heart is obtained.
The Formula Ia N-phenylamidines are effective both orally and parenterally as antiarrhythmic agents. For instance, intravenous administration of about 2.5 mg./kg. of 3,4,5,6-tetrahydro-7-[(N-phenyl)-phenethylamino]-2H-azepine or 4,5,6,7,8,9-hexahydro-2-(N-phenylphenethyl-amino)-3H-azonine effectively restores normal cardiac rhythm to induced arrhythmia in the dog.

rabbit ileum = test: In vitro smooth muscle relaxant test, isolated rabbit ileum with spasmogen; format: cell-based; settings: from EC50 vs spasmogen, papaverine = reference
Procedure: Smooth muscle relaxant activity of the compounds of the present invention can be measured in standard in vitro and in vivo pharmacological tests. One such in vitro test is carried out essentially as follows. A segment of rabbit ileum is suspended and oxygenated in Tyrode's solution and affixed to a tension transducer for electronic recording of isometric contractions. After controlled responses to a standard dose of a spasmogen such as barium chloride (0.25 mg./ml.), acetyl choline chloride (1.0 mcg./ml.), etc., are established, the test compound is added and the response to the spasmogen, in the presence of the test agent, again determined. Test compound effect is measured as the percentage reduction in the response to the spasmogen, in the presence of the test compound, from the mean control response. A minimum of four trials is obtained with each of two to five different concentrations of the test compound. The data are expressed in log dose response curves and estimates made therefrom of the EC50 (concentration causing 50% reduction in response of the tissue to the spasmogen). In general, the effect of compounds identified by Formula I on the rabbit ileum is similar to papaverine, a well-known smooth muscle relaxant. […]

intestinal smooth muscle = test: In vivo intestinal smooth muscle relaxation in anesthetized cat (intraduodenal pressure)
Procedure: Intestinal smooth muscle relaxant activity can also be measured in an in vivo cat preparation. In this test, a balloon is inserted through a small incision in the stomach of an anesthetized cat to a point about 10 cm. down the duodenum and intralumenal intestinal pressure changes recorded. A solution or suspension of the test agent is administered intraduodenally about 2 cm. beyond the balloon placed for recording intraduodenal pressure in volume doses of 1 ml./kg. body weight. This means of administration mimics oral administration. Various doses of the test agent are administered and an inhibitory dose which supresses intestinal […] by 50% of maximum is determined. This value is designated the ID50. N-benzyl-N'-tert-butyl-N-phenylforamidine hydrochloride compared to papaverine is about 1.5 times as potent in this test.

rabbit atrium = test: Isolated rabbit atrium test (refractory period); format: cell-based; settings: Oryctolagus cuniculus, read-out: EC50 (50% of maximal increase in refractory period)
Procedure: In the rabbit atrium test, the left atrium is placed in Chenoweth's solution warmed to 30° C. and irrigated with 95% oxygen:5% carbon dioxide. The lower end of the atrium is attached to a small hook fixed in the bath and the upper end is connected to a transducer to record contractile activity. The atrium is electrically stimulated at a basic rate of 30 per minute employing square wave pulses of 10 millisecond duration at 1.2-1.5 times threshold voltage. The test compound is introduced into the bath and the test repeated after a 5 minute interval. A dose response relationship is obtained by additional doses of the test compound. Potency of a test agent can be expressed as the effective concentration which produces 50% of the maximal increase in the measured refractory period of the steady state atrium. This value is designated the EC50.

[4] = tested on: histamine challenged guinea pig; test: Histamine challenged guinea pig aerosol test (bronchodilation); format: in vivo; settings: oral
From the text: As a bronchodilating agent, 3-[(N-1-pyrrolin-2-yl-p-anisidino)methyl]indolehydrochloride is of particular interest. In the histamine challenged guinea pig aerosol test, refer to Turner, Screening Methods In Pharmacology, page 214 (1965) (Academic Press, New York), this compound is about 1.4 times as potent as aminophylline when administered orally.

[5] = tested on: guinea pig isolated tracheal spiral; test: In vitro guinea pig isolated tracheal spiral test; format: cell-based
Procedure: Another in vitro test measuring the smooth muscle relaxant properties of the compounds of the present invention employs the guinea pig isolated tracheal spiral and is carried out essentially as described by Lish, et al., J. Pharmacol. Exp. Therap., 129, 191 (1960). As illustrative of the activity of the compounds of the present invention in this test there can be mentioned 3-[(N-1-pyrrolin-2-yl-p-anisidino)methyl]indole hydrochloride which is about 1.7 times as potent as aminophylline.

[6] = rabbit left atrium, 30° C., Chenoweth's solution

In the case of c1ccc(N=C2CCCN2)cc1 [2-phenyliminopyrrolidine, reference compound], the “diuretic activity (in words)” value ([1]; Lipschitz method) is reported as “substantially inactive as a diuretic agent”.

c1ccc(CCN(C2=NCCCCC2)c2ccccc2)cc1 [3,4,5,6-tetrahydro-7-[(N-phenyl)phenethylamino]-2H-azepine] showed an ED50 [2] of 11.5 mg/kg and a minimal effective dose [3] of roughly 2.5 mg/kg.

c1ccc(CCN(C2=NCCCCCCC2)c2ccccc2)cc1 [4,5,6,7,8,9-hexahydro-2-(N-phenylphenethylamino)-3H-azonine] showed a minimal effective dose [3] of roughly 2.5 mg/kg.

With CC(C)(C)N=CN(CCc1ccccc1)c1ccccc1.Cl [Example 1, N'-tert-Butyl-N-phenethyl-N-phenylformamidine hydrochloride] the “smooth muscle relaxant potency relative to papaverine (times as potent)” value (rabbit ileum) was 5.

For CC(C)(C)N=CN(Cc1ccccc1)c1ccccc1.Cl [Example 2, N-Benzyl-N'-tert.-butyl-N-phenylformamidine hydrochloride], the “potency relative to papaverine (times as potent, ID50)” value (intestinal smooth muscle) was “about 1.5”.

In the case of CC1CCC(N(Cc2ccccc2)c2ccccc2)=N1.Cl (stereo not shown) [Example 5, 5-Methyl-2-(N-phenylbenzylamino)-1-pyrroline hydrochloride], the “ratio of sodium ion excretion to potassium ion excretion” value ([1]; oral, 6.25 mg./kg.) is reported as 2.7, the “ratio for potassium ion excretion vs urea control group” value ([1]; oral, 6.25 mg./kg., 5 hours) is reported as 0.75 and the “ratio for sodium ion excretion vs urea control group” value ([1]; oral, 6.25 mg./kg., 5 hours) is reported as 2.03. For the same compound, the “ratio for volume excretion vs urea control group” value ([1]; oral, 6.25 mg./kg., 5 hours) was 2.32.

Compound Cl.c1ccc(CCN(C2=NCCCCC2)c2ccccc2)cc1 [Example 10, 3,4,5,6-Tetrahydro-7-[(N-phenyl)phenethylamino]-2H-azepine hydrochloride] has an EC50 (rabbit atrium; [6]) of 7.2 µg/mL.

With COc1ccc(N(Cc2c[nH]c3ccccc23)C2=NCCC2)cc1 [Example 34, 3-[N-1-Pyrrolin-2-yl-p-anisidino)methyl]indole hydrochloride] the “bronchodilating potency relative to aminophylline (times as potent)” value [4] was “about 1.4” and the “potency relative to aminophylline (times as potent)” value [5] was “about 1.7”.

With CC1CCC(N(Cc2c[nH]c3ccccc23)c2ccccc2)=N1.Cl (stereo not shown) [Example 37, 3-[[N-(5-methyl-1-pyrrolin-2yl)anilino]methyl]indole hydrochloride] the “smooth muscle relaxant potency relative to papaverine (times as potent)” value (rabbit ileum) was 1.4.

Compound c1ccc(CCN(C2=NCCCCCC2)c2ccccc2)cc1 [Example 60, 3,4,5,6,7,8-Hexahydro-2-(N-phenylphenethylamino)azocine hydrochloride hemihydrate] has an EC50 (rabbit atrium; [6]) of 2.5 µg/mL.

Cl.c1ccc(CCN(C2=NCCCCCCC2)c2ccccc2)cc1 [Example 61, 4,5,6,7,8,9-Hexahydro-2-(N-phenylphenethylamino)-3H-azonine Hydrochloride] gave an EC50 (rabbit atrium; [6]) of 1.9 µg/mL.

For NS(=O)(=O)c1cc2c(cc1Cl)NCNS2(=O)=O [Hydrochlorothiazide, reference compound], the “ratio of sodium ion excretion to potassium ion excretion” value ([1]; oral, 6.25 mg./kg.) was 1.65.

Compound C=C[C@H]1C[N@@]2CC[C@H]1C[C@@H]2[C@@H](O)c1ccnc2ccc(OC)cc12 [Quinidine, reference compound] has an EC50 (rabbit atrium) of 18 µg/mL (≈ 55.5 µM) and a minimal effective dose [3] of 6 mg/kg.

Source: patent publication US4072675A, “N-phenyl amidines” (Mead Johnson & Company, priority 1975, dated 1978)
